{
  "source": "paper PMC6593727",
  "about": "(Clinical Pharmacology in Drug Development, 2019)",
  "key": {"[1]": {"molecular_target": "T1, CYP2C8 (Homo sapiens, UniProt P10632)", "T1 sequence (P10632 1-490)": "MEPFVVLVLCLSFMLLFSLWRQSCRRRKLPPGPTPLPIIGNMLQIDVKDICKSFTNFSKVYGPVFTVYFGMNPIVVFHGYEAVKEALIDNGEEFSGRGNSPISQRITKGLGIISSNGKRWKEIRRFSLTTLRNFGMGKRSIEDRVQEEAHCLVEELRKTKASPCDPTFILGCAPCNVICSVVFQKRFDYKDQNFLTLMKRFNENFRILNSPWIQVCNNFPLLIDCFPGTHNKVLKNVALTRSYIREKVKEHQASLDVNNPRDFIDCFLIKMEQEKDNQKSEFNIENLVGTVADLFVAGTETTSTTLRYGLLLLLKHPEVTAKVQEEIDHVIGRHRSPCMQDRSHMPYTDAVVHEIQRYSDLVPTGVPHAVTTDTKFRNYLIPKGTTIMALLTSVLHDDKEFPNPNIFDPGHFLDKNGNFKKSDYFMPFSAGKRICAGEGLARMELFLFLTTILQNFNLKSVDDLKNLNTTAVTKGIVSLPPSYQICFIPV", "assay": "In vitro CYP inhibition studies in human liver microsomes using probe substrates", "format": "biochemical", "conditions": "for R value (FDA): R = 1 + (total Cmax/Ki); for R value (EMA): R = unbound Cmax/Ki"}, "[2]": {"molecular_target": "T2, CYP2C9 (Homo sapiens, UniProt P11712)", "T2 sequence (P11712 whole entry)": "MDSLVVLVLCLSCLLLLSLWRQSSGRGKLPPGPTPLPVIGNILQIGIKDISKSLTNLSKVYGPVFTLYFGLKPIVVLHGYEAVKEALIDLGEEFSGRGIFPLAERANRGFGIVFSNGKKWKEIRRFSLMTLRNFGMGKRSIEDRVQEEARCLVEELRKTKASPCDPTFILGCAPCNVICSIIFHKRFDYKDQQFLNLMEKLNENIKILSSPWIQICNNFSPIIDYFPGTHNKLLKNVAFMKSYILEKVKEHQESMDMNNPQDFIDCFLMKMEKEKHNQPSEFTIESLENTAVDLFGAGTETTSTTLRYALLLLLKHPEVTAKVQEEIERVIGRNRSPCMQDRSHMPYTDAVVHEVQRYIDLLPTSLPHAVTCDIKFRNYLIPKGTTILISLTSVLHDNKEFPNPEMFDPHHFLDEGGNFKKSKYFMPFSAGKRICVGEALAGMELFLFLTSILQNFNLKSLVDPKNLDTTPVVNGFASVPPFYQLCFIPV", "assay": "In vitro CYP inhibition studies in human liver microsomes using probe substrates", "format": "biochemical", "conditions": "for R value (FDA): R = 1 + (total Cmax/Ki); for R value (EMA): R = unbound Cmax/Ki"}, "[3]": {"molecular_target": "T3, CYP2C19 (Homo sapiens, UniProt P33261)", "T3 sequence (P33261 whole entry)": "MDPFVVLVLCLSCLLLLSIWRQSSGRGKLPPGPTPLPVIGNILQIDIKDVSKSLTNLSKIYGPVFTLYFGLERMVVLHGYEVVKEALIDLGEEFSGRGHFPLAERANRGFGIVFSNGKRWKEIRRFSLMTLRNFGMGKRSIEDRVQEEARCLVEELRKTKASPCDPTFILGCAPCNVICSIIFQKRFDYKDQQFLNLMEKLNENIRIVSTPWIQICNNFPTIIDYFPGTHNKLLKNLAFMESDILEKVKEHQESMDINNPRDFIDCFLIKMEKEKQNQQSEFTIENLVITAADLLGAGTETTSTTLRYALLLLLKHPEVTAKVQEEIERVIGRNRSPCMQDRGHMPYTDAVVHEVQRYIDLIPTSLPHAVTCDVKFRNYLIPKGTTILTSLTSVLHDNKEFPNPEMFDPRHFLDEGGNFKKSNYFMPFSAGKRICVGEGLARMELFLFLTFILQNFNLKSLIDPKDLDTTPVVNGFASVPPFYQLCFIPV", "assay": "In vitro CYP inhibition studies in human liver microsomes using probe substrates", "format": "biochemical", "conditions": "for R value (FDA): R = 1 + (total Cmax/Ki); for R value (EMA): R = unbound Cmax/Ki"}, "[4]": {"molecular_target": "T4, CYP2D6 (Homo sapiens, UniProt P10635)", "T4 sequence (P10635 whole entry)": "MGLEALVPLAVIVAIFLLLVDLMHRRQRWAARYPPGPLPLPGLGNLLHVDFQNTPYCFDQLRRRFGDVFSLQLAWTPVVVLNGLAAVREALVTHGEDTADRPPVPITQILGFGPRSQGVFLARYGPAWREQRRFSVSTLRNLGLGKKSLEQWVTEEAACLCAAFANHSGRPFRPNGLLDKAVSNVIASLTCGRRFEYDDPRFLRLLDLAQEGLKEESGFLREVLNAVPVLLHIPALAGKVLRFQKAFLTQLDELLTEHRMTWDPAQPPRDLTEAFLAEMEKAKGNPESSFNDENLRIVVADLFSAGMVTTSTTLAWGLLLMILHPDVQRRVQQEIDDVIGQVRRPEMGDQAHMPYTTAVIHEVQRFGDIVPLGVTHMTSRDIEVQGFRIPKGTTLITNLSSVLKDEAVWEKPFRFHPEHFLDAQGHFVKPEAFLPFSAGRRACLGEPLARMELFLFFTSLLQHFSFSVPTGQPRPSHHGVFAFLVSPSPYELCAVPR", "assay": "In vitro CYP inhibition studies in human liver microsomes using probe substrates", "format": "biochemical", "conditions": "for R value (FDA): R = 1 + (total Cmax/Ki); for R value (EMA): R = unbound Cmax/Ki"}, "[5]": {"molecular_target": "T5, CYP3A4 (Homo sapiens, UniProt P08684)", "T5 sequence (P08684 whole entry)": "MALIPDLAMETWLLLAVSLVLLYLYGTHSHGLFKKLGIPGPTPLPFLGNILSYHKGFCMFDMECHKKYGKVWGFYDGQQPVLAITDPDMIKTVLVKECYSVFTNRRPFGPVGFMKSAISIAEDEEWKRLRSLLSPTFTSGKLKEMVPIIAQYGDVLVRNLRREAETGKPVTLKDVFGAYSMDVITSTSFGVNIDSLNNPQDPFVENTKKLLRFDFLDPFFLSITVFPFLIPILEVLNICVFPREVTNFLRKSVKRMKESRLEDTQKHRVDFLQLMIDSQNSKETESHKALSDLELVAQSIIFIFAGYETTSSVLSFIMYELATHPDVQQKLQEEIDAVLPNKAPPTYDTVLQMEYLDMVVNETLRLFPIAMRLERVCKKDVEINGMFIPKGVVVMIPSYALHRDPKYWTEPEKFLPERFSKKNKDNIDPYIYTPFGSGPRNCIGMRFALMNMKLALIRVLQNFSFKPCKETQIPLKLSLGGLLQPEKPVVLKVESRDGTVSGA", "assay": "In vitro CYP inhibition studies in human liver microsomes using probe substrates", "format": "biochemical", "conditions": "for R value (FDA): R = 1 + (total Cmax/Ki); for R value (EMA): R = unbound Cmax/Ki"}, "[6]": {"assay": "ASP8477 steady‐state plasma PK in the cocktail study", "format": "in vivo, human", "conditions": "for Ctrough: mean ± SD"}, "[7]": {"test_system": "healthy female subjects", "assay": "Safety and tolerability: adverse events", "format": "in vivo, human"}, "[8]": {"assay": "Fraction of unbound ASP8477 in humans", "format": "in vitro ADME, human", "conditions": "independent of the clinical concentration range"}, "[9]": {"test_system": "CYP enzymes", "assay": "Induction of CYP enzymes in vitro", "format": "in vitro ADME"}, "[10]": {"conditions": "ref clinical studies, cited from earlier work"}, "[11]": {"molecular_target": "T2, CYP2C9", "assay": "Inje cocktail DDI study: losartan and EXP‐3174 PK, assessment of CYP2C9 activity"}, "[12]": {"molecular_target": "T5, CYP3A4"}, "[13]": {"molecular_target": "T3, CYP2C19"}, "[14]": {"molecular_target": "T4, CYP2D6"}, "[15]": {"conditions": "female, human, plasma, oral, 20 mg"}, "[16]": {"conditions": "female, human, plasma, oral, 60 mg"}, "[17]": {"conditions": "female, human, plasma, oral, 100 mg"}},
  "note": "Like-named read-outs stand apart in the source and are kept apart here.",
  "data": [
    {"smiles": "O=C(Nc1ccccc1)C1CCN(C(=O)Oc2cccnc2)CC1", "note": "[ASP8477, 3‐pyridyl 4‐(phenylcarbamoyl)piperidine‐1‐carboxylate]", "values": [
      {"measurement": "Ki", "setting": "[1]", "value": 15, "unit": "µM"},
      {"measurement": "R value (FDA)", "setting": "[1]; ASP8477 20 mg QD", "value": 1.074},
      {"measurement": "R value (EMA)", "setting": "[1]; ASP8477 20 mg QD", "value": 0.011},
      {"measurement": "R value (FDA)", "setting": "[1]; ASP8477 60 mg QD", "value": 1.385},
      {"measurement": "R value (EMA)", "setting": "[1]; ASP8477 60 mg QD", "value": 0.06},
      {"measurement": "Ki", "setting": "[2]", "value": 8, "unit": "µM"},
      {"measurement": "R value (FDA)", "setting": "[2]; ASP8477 20 mg QD", "value": 1.140},
      {"measurement": "R value (EMA)", "setting": "[2]; ASP8477 20 mg QD", "value": 0.021},
      {"measurement": "R value (FDA)", "setting": "[2]; ASP8477 60 mg QD", "value": 1.723},
      {"measurement": "R value (EMA)", "setting": "[2]; ASP8477 60 mg QD", "value": 0.11},
      {"measurement": "Ki", "setting": "[3]", "value": 1, "unit": "µM"},
      {"measurement": "R value (FDA)", "setting": "[3]; ASP8477 20 mg QD", "value": 2.116},
      {"measurement": "R value (EMA)", "setting": "[3]; ASP8477 20 mg QD", "value": 0.167},
      {"measurement": "R value (FDA)", "setting": "[3]; ASP8477 60 mg QD", "value": 6.781},
      {"measurement": "R value (EMA)", "setting": "[3]; ASP8477 60 mg QD", "value": 0.87},
      {"measurement": "Ki", "setting": "[4]", "value": 9.8, "unit": "µM"},
      {"measurement": "R value (FDA)", "setting": "[4]; ASP8477 20 mg QD", "value": 1.114},
      {"measurement": "R value (EMA)", "setting": "[4]; ASP8477 20 mg QD", "value": 0.017},
      {"measurement": "R value (FDA)", "setting": "[4]; ASP8477 60 mg QD", "value": 1.590},
      {"measurement": "R value (EMA)", "setting": "[4]; ASP8477 60 mg QD", "value": 0.09},
      {"measurement": "Ki", "setting": "[5]", "value": 18, "unit": "µM"},
      {"measurement": "R value (FDA)", "setting": "[5]; ASP8477 20 mg QD", "value": 1.062},
      {"measurement": "R value (EMA)", "setting": "[5]; ASP8477 20 mg QD", "value": 0.009},
      {"measurement": "R value (FDA)", "setting": "[5]; ASP8477 60 mg QD", "value": 1.321},
      {"measurement": "R value (EMA)", "setting": "[5]; ASP8477 60 mg QD", "value": 0.05},
      {"measurement": "dose proportionality of Cmax and AUCtau", "setting": "[6]; 20, 60, 100 mg once daily", "value": "more than dose‐proportional"},
      {"measurement": "Ctrough", "setting": "[6]; Day 14, 60 mg ASP8477 qd", "value": "91 ± 110", "unit": "ng/mL"},
      {"measurement": "Ctrough", "setting": "[6]; Day 23, 100 mg ASP8477 qd", "value": "740 ± 640", "unit": "ng/mL"},
      {"measurement": "AUC", "setting": "[6]; [15]", "value": "1600 ± 710", "unit": "ng·h/mL"},
      {"measurement": "Cmax", "setting": "[6]; [15]", "value": "400 ± 120", "unit": "ng/mL"},
      {"measurement": "Tmax", "setting": "[6]; [15]", "value": 1, "unit": "h"},
      {"measurement": "Cmax", "setting": "[6]; [16]", "value": "2000 ± 490", "unit": "ng/mL"},
      {"measurement": "Tmax", "setting": "[6]; [16]", "value": 2, "unit": "h"},
      {"measurement": "Cmax", "setting": "[6]; [17]", "value": "4200 ± 1200", "unit": "ng/mL"},
      {"measurement": "Tmax", "setting": "[6]; [17]", "value": 2, "unit": "h"},
      {"measurement": "tolerability", "setting": "[7]; ASP8477 in conjunction with cocktail probes, healthy female subjects", "value": "generally well tolerated"},
      {"measurement": "fatigue of moderate intensity (most frequent moderate AE)", "setting": "[7]; all dose levels", "value": 5, "unit": "subjects"},
      {"measurement": "discontinuation due to an AE (emotional lability, moderate)", "setting": "[7]; day 15, at the 60 mg level", "value": 1, "unit": "subject"},
      {"measurement": "AEs considered possibly or probably related to study drug", "setting": "[7]; following 20 mg ASP8477", "value": 11, "unit": "subjects"},
      {"measurement": "AEs considered possibly or probably related to study drug", "setting": "[7]; following 60 mg ASP8477", "value": 11, "unit": "subjects"},
      {"measurement": "AEs considered possibly or probably related to study drug", "setting": "[7]; following 100 mg ASP8477", "value": 13, "unit": "subjects"},
      {"measurement": "serious AEs or deaths", "setting": "[7]; whole study", "value": "No serious AEs or deaths"},
      {"measurement": "fraction of unbound ASP8477", "setting": "[8]", "value": 15, "unit": "%"},
      {"measurement": "effect on the induction of CYP enzymes", "setting": "[9]", "value": "No clinically relevant effect"},
      {"measurement": "steady state achieved (mean trough concentration‐time profiles)", "setting": "[10]; 20 mg once daily", "value": 1, "unit": "days"},
      {"measurement": "steady state achieved (mean trough concentration‐time profiles)", "setting": "[10]; 60 mg once daily", "value": 3, "unit": "days"},
      {"measurement": "steady state achieved (mean trough concentration‐time profiles)", "setting": "[10]; 100 mg once daily", "value": 10, "unit": "days"},
      {"measurement": "dose excreted in urine as unchanged drug", "setting": "[10]", "value": "Approximately 1%"},
      {"measurement": "in vivo CYP inhibition class (FDA guidance, AUC of probe substrate)", "setting": "[11]; 20 mg dose level", "value": "no effect"},
      {"measurement": "in vivo CYP inhibition class (FDA guidance, AUC of probe substrate)", "setting": "[11]; 60 mg dose level", "value": "weak (1.25‐ to <2‐fold)"},
      {"measurement": "in vivo CYP inhibition class (FDA guidance, AUC of probe substrate)", "setting": "[11]; 100 mg dose level", "value": "weak (1.25‐ to <2‐fold)"},
      {"measurement": "overall in vivo inhibitor class", "setting": "[11]; doses from 20 to 100 mg", "value": "weak (1.25‐ to <2‐fold)"},
      {"measurement": "in vivo CYP inhibition class (FDA guidance, AUC of probe substrate)", "setting": "[12]; 60 mg dose level", "value": "weak (1.25‐ to <2‐fold)"},
      {"measurement": "in vivo CYP inhibition class (FDA guidance, AUC of probe substrate)", "setting": "[12]; 100 mg dose level", "value": "weak (1.25‐ to <2‐fold)"},
      {"measurement": "overall in vivo inhibitor class", "setting": "[12]; doses from 20 to 100 mg", "value": "weak (1.25‐ to <2‐fold)"},
      {"measurement": "in vivo CYP inhibition class (FDA guidance, AUC of probe substrate)", "setting": "[13]; 20 mg dose level", "value": "moderate (2‐ to <5‐fold)"},
      {"measurement": "in vivo CYP inhibition class (FDA guidance, AUC of probe substrate)", "setting": "[13]; 60 mg dose level", "value": "moderate (2‐ to <5‐fold)"},
      {"measurement": "in vivo CYP inhibition class (FDA guidance, AUC of probe substrate)", "setting": "[13]; 100 mg dose level", "value": "strong (≥5‐fold)"},
      {"measurement": "overall in vivo inhibitor class", "setting": "[13]; doses from 20 to 100 mg", "value": "moderate to strong"},
      {"measurement": "in vivo CYP inhibition class (FDA guidance, AUC of probe substrate)", "setting": "[14]; 20 mg dose level", "value": "weak (1.25‐ to <2‐fold)"},
      {"measurement": "in vivo CYP inhibition class (FDA guidance, AUC of probe substrate)", "setting": "[14]; 60 mg dose level", "value": "moderate (2‐ to <5‐fold)"},
      {"measurement": "in vivo CYP inhibition class (FDA guidance, AUC of probe substrate)", "setting": "[14]; 100 mg dose level", "value": "strong (≥5‐fold)"},
      {"measurement": "overall in vivo inhibitor class", "setting": "[14]; doses from 20 to 100 mg", "value": "weak to strong"}
    ]}
  ]
}
